These results are taken from ChEMBL document CHEMBL3046225, “Effects of Enantiomerism on Fungicidal and Insecticidal Activities of (-Methoxybenzyl)isoxazoles” (J Pestic Sci, 2000).

≈ marks a conversion by molar mass, not a printed value.

Assay [1] relates to Pseudoperonospora cubensis. In words: Fungicidal activity against Pseudoperonospora cubensis. The class given is functional, organism-based.
A further assay has as its system Myzus persicae. In words: Insecticidal activity against Myzus persicae (green peach aphid) assessed as mortality. The format is functional.
The next assay deals with Podosphaera fuliginea. Put plainly: Fungicidal activity against Podosphaera fuliginea. The format is functional, organism-based.

Consider `CO[C@@H](c1cc(C)no1)c1ccccc1/C=N/N=C(\C)c1ccc(Cl)c(Cl)c1`, for which the EC50 in assay [1] is 16 ppm; in the assay with Podosphaera fuliginea, 0.7 ppm. Moreover, the LC50 (in general, the concentration lethal to half of the exposed cells or organisms) in the assay with Myzus persicae is 20 µg/mL (≈ 48 µM).
Taken in the same sequence, the figures for `CO[C@H](c1cc(C)no1)c1ccccc1/C=N/N=C(\C)c1ccc(Cl)c(Cl)c1` were more than 500 ppm, 8.8 ppm and more than 250 µg/mL.
For `COC(c1cc(C)no1)c1ccccc1/C=N/N=C(\C)c1ccc(Cl)c(Cl)c1` (racemic), the EC50 in assay [1] is 32 ppm; in the assay on Podosphaera fuliginea, 2 ppm. Also, in the assay on Myzus persicae, the LC50 is 53 µg/mL (≈ 127 µM).
